Tests used:
CYP2B6 = target: T1, CYP2B6 (Homo sapiens, UniProt P20813); assay: CYP activity inhibition in human liver microsomes; format: biochemical; settings: read-out: IC50 (μM) / Direct inhibition
T1 construct: native enzyme in human liver microsomes
T1 sequence (P20813 1-491): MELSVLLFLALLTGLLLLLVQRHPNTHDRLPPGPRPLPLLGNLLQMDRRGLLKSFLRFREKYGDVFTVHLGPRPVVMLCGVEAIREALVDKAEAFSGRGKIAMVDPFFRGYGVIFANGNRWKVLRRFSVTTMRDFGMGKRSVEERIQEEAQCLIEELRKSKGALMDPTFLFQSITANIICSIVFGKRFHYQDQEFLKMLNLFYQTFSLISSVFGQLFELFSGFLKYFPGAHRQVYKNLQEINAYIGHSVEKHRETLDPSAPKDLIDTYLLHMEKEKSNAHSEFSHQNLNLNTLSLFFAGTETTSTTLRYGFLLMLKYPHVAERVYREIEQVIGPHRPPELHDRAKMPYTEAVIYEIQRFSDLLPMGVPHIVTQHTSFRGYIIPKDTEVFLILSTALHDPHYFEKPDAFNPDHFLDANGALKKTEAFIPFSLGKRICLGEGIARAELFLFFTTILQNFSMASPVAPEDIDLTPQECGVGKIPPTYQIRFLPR
Text: CYP activity inhibition in human liver microsomes on CYP2B6

UGT1A3 = target: T2, UGT1A3 (Homo sapiens, UniProt P35503); assay: glucuronidation inhibition in human liver microsomes; format: biochemical; settings: substrate chenodeoxycholic acid; direct inhibition
T2 construct: native enzyme in human liver microsomes
T2 sequence (P35503 29-534): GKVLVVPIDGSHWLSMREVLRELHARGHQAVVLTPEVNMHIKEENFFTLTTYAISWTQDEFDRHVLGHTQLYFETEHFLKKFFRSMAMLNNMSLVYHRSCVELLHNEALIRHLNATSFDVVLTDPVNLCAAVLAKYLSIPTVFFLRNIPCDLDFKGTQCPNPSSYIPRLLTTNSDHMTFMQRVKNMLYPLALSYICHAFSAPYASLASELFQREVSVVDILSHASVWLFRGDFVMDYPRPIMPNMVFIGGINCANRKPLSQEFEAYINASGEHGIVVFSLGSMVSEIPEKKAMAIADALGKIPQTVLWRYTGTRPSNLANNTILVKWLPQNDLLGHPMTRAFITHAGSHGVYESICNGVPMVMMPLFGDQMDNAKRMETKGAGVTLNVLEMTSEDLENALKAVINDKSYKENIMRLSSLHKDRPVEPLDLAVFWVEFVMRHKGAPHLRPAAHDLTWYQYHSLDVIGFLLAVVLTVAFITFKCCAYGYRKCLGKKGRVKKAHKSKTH
Text: glucuronidation inhibition in human liver microsomes on UGT1A3

CYP2C8 = target: T3, CYP2C8 (Homo sapiens, UniProt P10632); assay: CYP activity inhibition in human liver microsomes; format: biochemical; settings: read-out: IC50 (μM) / Direct inhibition
T3 construct: native enzyme in human liver microsomes
T3 sequence (P10632 1-490): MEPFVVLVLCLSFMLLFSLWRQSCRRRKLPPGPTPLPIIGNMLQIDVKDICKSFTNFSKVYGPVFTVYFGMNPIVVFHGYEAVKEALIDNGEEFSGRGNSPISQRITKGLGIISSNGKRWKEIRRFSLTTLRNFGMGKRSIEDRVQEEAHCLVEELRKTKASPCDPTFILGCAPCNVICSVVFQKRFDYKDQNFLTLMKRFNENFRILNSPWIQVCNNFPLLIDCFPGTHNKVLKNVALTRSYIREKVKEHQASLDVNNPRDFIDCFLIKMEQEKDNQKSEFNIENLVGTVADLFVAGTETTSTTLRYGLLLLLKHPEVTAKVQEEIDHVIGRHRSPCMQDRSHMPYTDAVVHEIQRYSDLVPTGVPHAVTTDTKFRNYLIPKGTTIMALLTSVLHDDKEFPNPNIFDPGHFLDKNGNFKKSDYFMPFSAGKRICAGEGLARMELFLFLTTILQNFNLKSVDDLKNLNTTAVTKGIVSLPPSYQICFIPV
Text: CYP activity inhibition in human liver microsomes on CYP2C8

CYP1A2 = target: T4, CYP1A2 (Homo sapiens, UniProt P05177); assay: CYP activity inhibition in human liver microsomes; format: biochemical; settings: read-out: IC50 (μM) / Direct inhibition
T4 construct: native enzyme in human liver microsomes
T4 sequence (P05177 2-516): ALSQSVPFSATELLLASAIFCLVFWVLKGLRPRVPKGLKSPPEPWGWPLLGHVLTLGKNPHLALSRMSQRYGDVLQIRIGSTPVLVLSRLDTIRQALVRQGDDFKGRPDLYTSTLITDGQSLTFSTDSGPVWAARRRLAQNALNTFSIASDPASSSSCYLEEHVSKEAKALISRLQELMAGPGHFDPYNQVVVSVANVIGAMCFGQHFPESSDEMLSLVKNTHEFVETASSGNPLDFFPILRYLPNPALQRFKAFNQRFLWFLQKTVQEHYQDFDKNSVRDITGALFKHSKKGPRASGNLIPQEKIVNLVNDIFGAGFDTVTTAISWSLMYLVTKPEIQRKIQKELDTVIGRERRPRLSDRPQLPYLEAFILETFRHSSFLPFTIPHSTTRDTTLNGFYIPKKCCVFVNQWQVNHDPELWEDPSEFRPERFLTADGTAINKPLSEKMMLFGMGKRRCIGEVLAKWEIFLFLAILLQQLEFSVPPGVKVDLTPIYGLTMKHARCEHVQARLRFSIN
Text: CYP activity inhibition in human liver microsomes on CYP1A2

MATE1 = target: T5, MATE1 (Homo sapiens, UniProt Q96FL8); assay: uptake inhibition in HEK293 cells expressing the transporter; format: cell-based
T5 construct: gene SLC47A1; expressed in HEK293 cells
T5 sequence (Q96FL8 1-570): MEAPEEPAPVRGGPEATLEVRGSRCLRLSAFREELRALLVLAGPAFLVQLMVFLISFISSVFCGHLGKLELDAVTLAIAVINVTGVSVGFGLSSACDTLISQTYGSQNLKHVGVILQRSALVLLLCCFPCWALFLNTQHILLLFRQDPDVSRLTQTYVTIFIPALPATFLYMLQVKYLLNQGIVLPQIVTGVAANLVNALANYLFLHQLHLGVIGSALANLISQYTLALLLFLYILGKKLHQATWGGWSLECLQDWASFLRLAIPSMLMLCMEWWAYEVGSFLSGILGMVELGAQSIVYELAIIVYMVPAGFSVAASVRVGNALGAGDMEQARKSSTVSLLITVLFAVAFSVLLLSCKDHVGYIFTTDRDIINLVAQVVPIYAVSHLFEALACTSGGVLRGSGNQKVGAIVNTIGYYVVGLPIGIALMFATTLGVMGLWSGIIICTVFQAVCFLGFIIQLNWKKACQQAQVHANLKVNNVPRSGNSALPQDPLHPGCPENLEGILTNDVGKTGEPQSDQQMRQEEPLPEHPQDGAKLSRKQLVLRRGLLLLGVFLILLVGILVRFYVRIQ
Text: uptake inhibition in HEK293 cells expressing the transporter on MATE1

- IC50 (CYP2B6): 48.9 µM
- IC50 (UGT1A3): 22.6 µM
- IC50 (CYP2C8): 24.2 µM
- IC50 (CYP1A2): > 100 µM
- IC50 (MATE1): 5.64 µM
SMILES: COC[C@H]1CN(C(=O)[C@]2(F)CN(C3CCCC3)C[C@H]2c2ccc(OC)cc2)C[C@@H]1c1ccc(C(F)(F)F)cc1N1CCC(C(=O)O)CC1 [dersimelagon]
